From publication PMC9833666, “Designing and identifying β-hairpin peptide macrocycles with antibiotic potential” (Science Advances, 2023)
Bridge positions count the residues as written; N and C are the ends. Peptide text beside a SMILES is read from it.

Tested on: Escherichia coli W3110
Format: cell-based
Conditions: for Ec W3110 MIC MH: E. coli W3110, MH medium; for Ec W3110 MIC RPMI: E. coli W3110, RPMI medium

Structure (SMILES)	Ec W3110 MIC MH	Ec W3110 MIC RPMI	W3110 MIC MH	W3110 MIC RPMI	W3110 MIC
CC(C)C[C@@H]1NC(=O)[C@H](CCC(=O)O)NC(=O)[C@H](CC(C)C)NC(=O)[C@H](CCCCN)NC(=O)[C@H](CC(C)C)NC(=O)[C@H](CCCNC(=N)N)NC(=O)[C@H](CCCNC(=N)N)NC(=O)CNC(=O)[C@H](CCCNC(=N)N)NC(=O)[C@H](CC(=O)O)NC(=O)[C@H](CC(=O)O)NC(=O)[C@H](C(C)C)NC(=O)[C@H](CC(N)=O)NC(=O)[C@H](C(C)C)NC(=O)[C@H](CCCCN)NC(=O)[C@H](C(C)C)NC(=O)[C@H](CCCNC(=N)N)NC(=O)[C@@H](N)CSSC[C@@H](C(=O)O)NC(=O)[C@H](CCC(N)=O)NC1=O [SyRC-15] (H-CRVKVNVDDRGRRLKLELQC-OH; disulfide 1-20)	–	–	–	–	>256 µg/mL
CC[C@H](C)[C@@H]1NC(=O)[C@H](CCCNC(=N)N)NC(=O)[C@H]([C@@H](C)CC)NC(=O)[C@H](CCCNC(=N)N)NC(=O)[C@@H](N)CSSC[C@@H](C(=O)O)NC(=O)[C@H](CCC(=O)O)NC(=O)[C@H](C(C)C)NC(=O)[C@H](CCC(=O)O)NC(=O)[C@H](CC(C)C)NC(=O)[C@H](CCCNC(=N)N)NC(=O)[C@H](C(C)C)NC(=O)[C@H]([C@@H](C)O)NC(=O)CNC(=O)CNC(=O)[C@H](CCCNC(=N)N)NC(=O)[C@H](CC(=O)O)NC(=O)[C@H](CC(N)=O)NC(=O)[C@H](C(C)C)NC(=O)[C@H](CC(N)=O)NC1=O [SyRC-4] (H-CRIRINVNDRGGTVRLEVEC-OH; disulfide 1-20)	–	–	–	–	>256 µg/mL
CC[C@H](C)[C@@H]1NC(=O)[C@H]([C@@H](C)O)NC(=O)[C@H](CC(C)C)NC(=O)[C@@H](N)CSSC[C@@H](C(=O)O)NC(=O)[C@H](C(C)C)NC(=O)[C@H](CCC(=O)O)NC(=O)[C@H](C(C)C)NC(=O)[C@H](CO)NC(=O)[C@H](C(C)C)NC(=O)[C@H](CCCCN)NC(=O)[C@H](C(C)C)NC(=O)[C@H](CCCNC(=N)N)NC(=O)[C@H](CO)NC(=O)[C@H](CCCNC(=N)N)NC(=O)[C@H](CCCNC(=N)N)NC(=O)[C@H](CC(=O)O)NC(=O)[C@H](CC(=O)O)NC(=O)[C@H](CC(C)C)NC(=O)[C@H](CCCNC(=N)N)NC1=O [SyRA-1] (H-CLTIRLDDRRSRVKVSVEVC-OH; disulfide 1-20)	–	–	–	–	>256 µg/mL
CC(C)C[C@@H]1NC(=O)CNC(=O)[C@H](CCCNC(=N)N)NC(=O)[C@H](CCCNC(=N)N)NC(=O)[C@H](CCCNC(=N)N)NC(=O)[C@H](CC(N)=O)NC(=O)[C@H](CC(N)=O)NC(=O)[C@H](CC(C)C)NC(=O)[C@H](CCCNC(=N)N)NC(=O)[C@H](C(C)C)NC(=O)[C@H](CCCNC(=N)N)NC(=O)[C@H](CC(C)C)NC(=O)[C@@H](N)CSSC[C@@H](C(=O)O)NC(=O)[C@H](C(C)C)NC(=O)[C@H](CCC(N)=O)NC(=O)[C@H](C(C)C)NC(=O)[C@H](CO)NC(=O)[C@H](C(C)C)NC(=O)[C@H](CCCCN)NC1=O [SySA-17] (H-CLRVRLNNRRRGLKVSVQVC-OH; disulfide 1-20; N-terminus and C-terminus assumed)	64 µg/mL	32 µg/mL	64 µg/mL	32 µg/mL	–
CC[C@H](C)[C@@H]1NC(=O)[C@H](CCCNC(=N)N)NC(=O)[C@H](C(C)C)NC(=O)CNC(=O)[C@H](CO)NC(=O)CNC(=O)CNC(=O)[C@H](CC(=O)O)NC(=O)[C@H](CC(N)=O)NC(=O)[C@H](CC(C)C)NC(=O)[C@H](CCCNC(=N)N)NC(=O)[C@H](C(C)C)NC(=O)[C@H](CCCNC(=N)N)NC(=O)[C@H](C(C)C)NC(=O)[C@@H](N)CSSC[C@@H](C(=O)O)NC(=O)[C@H](C(C)C)NC(=O)[C@H](CCC(N)=O)NC(=O)[C@H](C(C)C)NC(=O)[C@H](CO)NC1=O [SyRA-6] (H-CVRVRLNDGGSGVRISVQVC-OH; disulfide 1-20)	–	–	–	–	>256 µg/mL
CC(C)C[C@@H]1NC(=O)[C@H](CCCNC(=N)N)NC(=O)[C@H](CCCNC(=N)N)NC(=O)[C@H](CCCNC(=N)N)NC(=O)[C@H](CCCNC(=N)N)NC(=O)[C@H](CC(N)=O)NC(=O)[C@H](CC(N)=O)NC(=O)[C@H](CC(C)C)NC(=O)[C@H](CCCNC(=N)N)NC(=O)[C@H](C(C)C)NC(=O)[C@H](CCCNC(=N)N)NC(=O)[C@H](C(C)C)NC(=O)[C@@H](N)CSSC[C@@H](C(=O)O)NC(=O)[C@H](C(C)C)NC(=O)[C@H](CCC(=O)O)NC(=O)[C@H](CC(C)C)NC(=O)[C@H](CO)NC(=O)[C@H](C(C)C)NC(=O)[C@H](CCCCN)NC1=O [SySA-16] (H-CVRVRLNNRRRRLKVSLEVC-OH; disulfide 1-20; N-terminus and C-terminus assumed)	32 µg/mL	32 µg/mL	32 µg/mL	32 µg/mL	–
CC[C@H](C)[C@@H]1NC(=O)[C@H](CCCNC(=N)N)NC(=O)[C@H](CC(C)C)NC(=O)[C@@H](N)CSSC[C@@H](C(=O)O)NC(=O)[C@H](C(C)C)NC(=O)[C@H](CCC(N)=O)NC(=O)[C@H](CC(C)C)NC(=O)[C@H](CO)NC(=O)[C@H](C(C)C)NC(=O)[C@H](CCCCN)NC(=O)[C@H](CC(C)C)NC(=O)CNC(=O)[C@H](CCCNC(=N)N)NC(=O)[C@H](CCCNC(=N)N)NC(=O)[C@H](CCCNC(=N)N)NC(=O)[C@H](CC(N)=O)NC(=O)[C@H](CC(N)=O)NC(=O)[C@H](CC(C)C)NC(=O)[C@H](CCCNC(=N)N)NC1=O [SySA-30] (H-CLRIRLNNRRRGLKVSLQVC-OH; disulfide 1-20; N-terminus and C-terminus assumed)	64 µg/mL	8 µg/mL	64 µg/mL	8 µg/mL	–
CC(C)C[C@@H]1NC(=O)[C@H](CCCNC(=N)N)NC(=O)[C@H](C(C)C)NC(=O)[C@H](CCCNC(=N)N)NC(=O)[C@H](CC(C)C)NC(=O)[C@@H](N)CSSC[C@@H](C(=O)O)NC(=O)[C@H](C(C)C)NC(=O)[C@H](CCC(N)=O)NC(=O)[C@H](C(C)C)NC(=O)[C@H](CO)NC(=O)[C@H](C(C)C)NC(=O)[C@H](CCCCN)NC(=O)[C@H](C(C)C)NC(=O)[C@H](CCCNC(=N)N)NC(=O)[C@H](CCCNC(=N)N)NC(=O)CNC(=O)CNC(=O)[C@H](CC(N)=O)NC(=O)[C@H](CC(N)=O)NC1=O [SyRA-3] (H-CLRVRLNNGGRRVKVSVQVC-OH; disulfide 1-20)	–	–	–	–	> 256 µg/mL

Now from value to compound:

Ec W3110 MIC MH	Ec W3110 MIC RPMI	W3110 MIC MH	W3110 MIC RPMI	W3110 MIC	Structure (SMILES)
128 µg/mL	16 µg/mL	128 µg/mL	16 µg/mL	–	CC[C@H](C)[C@@H]1NC(=O)[C@H](CCCCN)NC(=O)[C@H](CC(C)C)NC(=O)[C@H](CCCNC(=N)N)NC(=O)CNC(=O)CNC(=O)[C@H](CCCNC(=N)N)NC(=O)[C@H](CC(N)=O)NC(=O)[C@H](CC(N)=O)NC(=O)[C@H](C(C)C)NC(=O)[C@H](CCCNC(=N)N)NC(=O)[C@H](C(C)C)NC(=O)[C@H](CCCNC(=N)N)NC(=O)[C@H](C(C)C)NC(=O)[C@@H](N)CSSC[C@@H](C(=O)O)NC(=O)[C@H](C(C)C)NC(=O)[C@H](CCC(N)=O)NC(=O)[C@H](C(C)C)NC(=O)[C@H](CO)NC1=O [SySA-83] (H-CVRVRVNNRGGRLKISVQVC-OH; disulfide 1-20; N-terminus and C-terminus assumed)
64 µg/mL	16 µg/mL	64 µg/mL	16 µg/mL	–	CC[C@H](C)[C@@H]1NC(=O)[C@H](CCCCN)NC(=O)[C@H](C(C)C)NC(=O)[C@H](CCCNC(=N)N)NC(=O)[C@H](CCCNC(=N)N)NC(=O)[C@H](CCCNC(=N)N)NC(=O)[C@H](CCCNC(=N)N)NC(=O)[C@H](CC(N)=O)NC(=O)[C@H](CC(N)=O)NC(=O)[C@H](CC(C)C)NC(=O)[C@H](CCCNC(=N)N)NC(=O)[C@H](C(C)C)NC(=O)[C@H](CCCNC(=N)N)NC(=O)[C@H](C(C)C)NC(=O)[C@@H](N)CSSC[C@@H](C(=O)O)NC(=O)[C@H](C(C)C)NC(=O)[C@H](CCC(=O)O)NC(=O)[C@H](C(C)C)NC(=O)[C@H](CO)NC1=O [SySA-65] (H-CVRVRLNNRRRRVKISVEVC-OH; disulfide 1-20; N-terminus and C-terminus assumed)
32 µg/mL	16 µg/mL	32 µg/mL	16 µg/mL	–	CC[C@H](C)[C@@H]1NC(=O)[C@H](CCCNC(=N)N)NC(=O)[C@H](C(C)C)NC(=O)[C@@H](N)CSSC[C@@H](C(=O)O)NC(=O)[C@H](C(C)C)NC(=O)[C@H](CCC(N)=O)NC(=O)[C@H](C(C)C)NC(=O)[C@H](CO)NC(=O)[C@H](C(C)C)NC(=O)[C@H](CCCCN)NC(=O)[C@H](C(C)C)NC(=O)[C@H](CCCNC(=N)N)NC(=O)[C@H](CCCNC(=N)N)NC(=O)[C@H](CCCNC(=N)N)NC(=O)[C@H](CCCNC(=N)N)NC(=O)[C@H](CC(N)=O)NC(=O)[C@H](CC(N)=O)NC(=O)[C@H](C(C)C)NC(=O)[C@H](CCCNC(=N)N)NC1=O [SySA-62] (H-CVRIRVNNRRRRVKVSVQVC-OH; disulfide 1-20; N-terminus and C-terminus assumed)
32 µg/mL	8 µg/mL	32 µg/mL	8 µg/mL	–	CC[C@H](C)[C@@H]1NC(=O)[C@H](CCCNC(=N)N)NC(=O)[C@H](C(C)C)NC(=O)[C@@H](N)CSSC[C@@H](C(=O)O)NC(=O)[C@H](C(C)C)NC(=O)[C@H](CCC(=O)O)NC(=O)[C@H](CC(C)C)NC(=O)[C@H](CO)NC(=O)[C@H](C(C)C)NC(=O)[C@H](CCCCN)NC(=O)[C@H](C(C)C)NC(=O)[C@H](CCCNC(=N)N)NC(=O)[C@H](CCCNC(=N)N)NC(=O)[C@H](CCCNC(=N)N)NC(=O)[C@H](CCCNC(=N)N)NC(=O)[C@H](CC(N)=O)NC(=O)[C@H](CC(N)=O)NC(=O)[C@H](CC(C)C)NC(=O)[C@H](CCCNC(=N)N)NC1=O [SySA-37] (H-CVRIRLNNRRRRVKVSLEVC-OH; disulfide 1-20; N-terminus and C-terminus assumed)
256 µg/mL	8 µg/mL	256 µg/mL	8 µg/mL	–	CC[C@H](C)[C@@H]1NC(=O)[C@H](CCCNC(=N)N)NC(=O)[C@H](C(C)C)NC(=O)[C@@H](N)CSSC[C@@H](C(=O)O)NC(=O)[C@H](C(C)C)NC(=O)[C@H](CCC(N)=O)NC(=O)[C@H](CC(C)C)NC(=O)[C@H](CO)NC(=O)[C@H](C(C)C)NC(=O)[C@H](CCCCN)NC(=O)[C@H](C(C)C)NC(=O)CNC(=O)[C@H](CO)NC(=O)[C@H](CCCNC(=N)N)NC(=O)[C@H](CCCNC(=N)N)NC(=O)[C@H](CC(N)=O)NC(=O)[C@H](CC(N)=O)NC(=O)[C@H](C(C)C)NC(=O)[C@H](CCCNC(=N)N)NC1=O [SySA-38] (H-CVRIRVNNRRSGVKVSLQVC-OH; disulfide 1-20; N-terminus and C-terminus assumed)
